Series [1] concerns wild type diabetic (DM) mice. Put plainly: Blood pressure in wild type diabetic mice. The class given is in vivo. The text has this: FIG. 1 represents a graph showing that ACE inhibitors are effective in lowering blood pressure in wild type diabetic (DM) mice. Shown in FIG. 1 is the effect of no treatment (No TX), the ACE inhibitor enalapril (DM enalapril), and the ARB telmisartan (DM telmisartan).
(§1) FIG. 1 is a graph showing that ACE inhibitors are effective in lowering blood pressure in wild type diabetic (DM) mice. Shown in FIG. 1 is the effect of no treatment (No TX), the ACE inhibitor enalapril (DM enalapril), and the ARB telmisartan (DM telmisartan). […] These are considered early changes of diabetic nephropathy.

Series [2] concerns wild type diabetic (DM) mice. Nature of the series: Renal histology (early diabetic nephropathy) in wild type diabetic mice. The class given is in vivo.
Text: These are considered early changes of diabetic nephropathy.
(§2) FIG. 4 ACE inhibitors and ARBs are not effective at preventing diabetic nephropathy in eNOSKO mice. DM caused mesangial expansion in DM eNOSKO mice (B), which was not prevented by enalapril (C) or telmisartan (D). […] Bar: 20 μm. […] Bar: 20 μm. White bar=no treatment; Black bar=enalapril; Gray bar=telmisartan. Data are shown as means and
as §1
(§3) DM caused mesangial expansion in DM eNOSKO mice (b), which was not prevented by enalapril (c) or telmisartan (d). […] Bar: 20 μm. […] Bar: 20 μm. White bar=no treatment; Black bar=enalapril; Gray bar=telmisartan. FIG. 5 pertains to a table that provides results of the effect of ACE inhibitors and ARBs on blood pressure and renal function in diabetic nephropathy in eNOSKO mice. ACE inhibitors and ARBs are effective at lowering blood pressure and proteinuria in wild type diabetic mice, and are also effective at lowering blood pressure in nondiabetic eNOSKO mice.

Series [3] has as its system DM eNOSKO mice. Nature of the series: Blood pressure in diabetic eNOSKO mice. The class given is in vivo. The following applies: diabetic mice lacking endothelial nitric oxide synthesis; 50 mg/kg.
Series [4] deals with DM eNOSKO mice. Nature of the series: Renal histology (diabetic nephropathy) in diabetic eNOSKO mice. The class given is in vivo.
Text: It has been shown that when diabetes is induced in these mice with streptozotocin, that they develop all aspects of human diabetic nephropathy, including clinical manifestations (nephrotic proteinuria, progressive renal failure and early mortality), histologic manifestations (including mesangial expansion, nodules and mesangiolysis, podocyte abnormalities, vascular lesions, tubulointerstitial disease) and molecular changes (increases in TGF-β and VEGF expression). To the inventors' knowledge this is also the first diabetic model that develops both retinopathy and nephropathy spontaneously.
as §2
FIG. 7 is an immunohistograph of a kidney of a Diabetic eNOSKO mouse showing an increase in aldosterone in its glomeruli. Diabetes was induced with streptozotocin in eNOSKO mice, which were treated with enalapril (10 mg/kg BW/day; black bar) or telmisartan (2 mg/kg BW/day; gray bar) for 4 weeks (from at 6 weeks to 10 weeks)
as §3

A further series concerns mitochondria. Put plainly: Mitochondrial loss in response to oxidative stress.
In the next series the test system is eNOSKO mice. As to conditions: 4 weeks, 50 mg/l drinking water. The procedure: Since nitrite is a metabolite of NO, and can be converted to NO in the body (reviewed in ^28), sodium nitrite was tested to see if it could prevent hypertension in eNOSKO mice.
Series [5] concerns human aortic endothelial cells. Nature of the series: Oxidative stress (DCF-DA fluorescence) in endothelial cells. The following applies: 12 mg/dl. The class given is cell-based. The procedure:
The green fluorescence is a measure of a marker for oxidative stress using the peroxide-sensitive probe 2′7′-dichlorofluorescein diacetate (DCF-DA) dye (FIG. 9A). On the right is the quantitation of oxidative stress, with control in open bar, uric acid (12 mg/dl) in the black bar, and uric acid with apocynin (an inhibitor of NADPH oxidase-induced oxidants) in the right bar (FIG. 9B).

The test system of series [6] is human aortic endothelial cells. Nature of the series: ATP levels in endothelial cells. The following applies: 3.5, 7 and 12 mg/dl, 48 hours. The class given is cell-based. The protocol: Uric acid (3.5 mg/dl, 7 mg/dl and 12 mg/dl) was included in the media for 48 hours.
(§4) One of the key mechanisms by which uric acid acts to cause endothelial dysfunction is to cause a loss of mitochondria and mitochondria DNA, resulting in depletion of ATP stores necessary for endothelial function (FIGS. 11 and 12).

Series [7] has as its system human aortic endothelial cells. Nature of the series: Mitochondria number (Mitotracker Orange) in endothelial cells. The class given is cell-based. The following applies: 12 mg/dl, 48 hours. The procedure:
Mitochondria numbers were measured with Mitotracker Orange in control cells (FIG. 12A) and UA treated cells (FIG. 12B). Shown in FIG. 12C is the quantified effect of uric acid 12 mg/dl on mitochondria density at 48 hours.
as §4

The subject of series [8] is human aortic endothelial cells. Put plainly: Cell viability (trypan blue exclusion). The class given is cell-based. The following applies: 48 hours.
Series [9] relates to porcine aortic endothelial cells. As to conditions: various doses, from Khosla et al; cited from earlier work.
Series [10] concerns DM eNOSKO mice. The following applies: diabetic eNOS-deficient mice; reference 21; cited from earlier work.

“Also recorded” adds a separate entry of the source.

In the case of `CCOC(=O)[C@H](CCc1ccccc1)N[C@@H](C)C(=O)N1CCC[C@H]1C(=O)O` [enalapril], in series [1], the “blood pressure (BP)” value is reported as “can significantly lower blood pressure”. In [2], the “glomerular type IV collagen deposition” value is “improve” and the mesangial expansion entry is “improve mesangial expansion; also recorded: beneficial effect”. In addition, the BP entry in the series with DM eNOSKO mice [3] is on record as “did not lower BP”. In the series on DM eNOSKO mice [4], the “advanced lesions (mesangiolysis with glomerular capillary microaneurysms, augmented deposition of extracellular matrix)” value is given as “Neither enalapril (g) nor telmisartan (h) treatment prevented these advanced lesions” and the mesangial expansion result was “not prevented”.
As to `O=C(NCCO[N+](=O)[O-])c1cccnc1` [nicorandil], in the series on mitochondria, the mitochondrial loss entry is given as “can prevent mitochondrial loss”.
Regarding `O=NO` [sodium nitrite], the blood pressure entry in the series on eNOSKO mice was “reduced blood pressure in eNOSKO mice similar to that observed in wild type mice”.
For `CCCc1nc2c(C)cc(-c3nc4ccccc4n3C)cc2n1Cc1ccc(-c2ccccc2C(=O)O)cc1` [telmisartan], the “blood pressure (BP)” value in series [1] is reported as “can significantly lower blood pressure”. Moreover, in series [2], the “glomerular type IV collagen deposition” value is recorded as “improve” and the mesangial expansion result is reported as “improve mesangial expansion; also recorded: beneficial effect”. Also, in the series on DM eNOSKO mice [4], the “advanced lesions (mesangiolysis with glomerular capillary microaneurysms, augmented deposition of extracellular matrix)” value was “Neither enalapril (g) nor telmisartan (h) treatment prevented these advanced lesions” and the mesangial expansion result is listed as “not prevented”.
Take `O=c1[nH]c(=O)c2[nH]c(=O)[nH]c2[nH]1` [uric acid]: the “oxidative stress (DCF-DA)” value in series [5] is on record as “causes oxidative stress”. Further, in [6], the ATP levels entry is given as “reduces ATP levels”. Also, the mitochondria number entry in [7] is on record as “reduces mitochondria number”. Besides, the cell viability result in series [8] (12 mg/dl) was “No effects on cell viability”. Moreover, in series [8] (3.5, 7 and 12 mg/dl), the “cell viability (trypan blue exclusion)” value is “No alterations in cell viability”. In addition, the “endothelial NO levels (fluorescence of DAF)” value in series [9] is given as “causes a reduction in endothelial NO levels”.
With insulin, the renal disease result in the series with DM eNOSKO mice [10] was “can be prevented”.

The values above are taken from US20110257202A1, “Therapeutic Compositions and Methods for Treating Chronic Kidney Disease Associated with a Metabolic Imbalance” (priority 2008, published 2011).
